Results taken from patent publication US12704521B2, “On-site rapid quantification of tetrahydrocannabinol” (The General Hospital Corporation, priority 2020, dated 2026).

Key:
[1] = system: AuNPAb (THC antibody-coated gold nanoparticles); assay: isothermal titration calorimetry of binding to AuNPAb
[2] = EPOCH test of oral fluid samples from cannabis users; type: in vivo, human
Source text: Informed consent was obtained from all subjects (cannabis smoker […]). Cannabis users were asked to take saliva samples right after cannabis smoking. Specifically, they were instructed to take a disposable swab (diameter, 1 cm; length, 1.5 cm) into the mouth and roll it for about one minute. The swab was then placed into the sample processing kit. Control samples were collected in the same manner from volunteers who self-declared no history of cannabis use. For the time-course monitoring, three cannabis smokers collected saliva samples hourly after their last smoking. Cylindrical saliva swabs were purchased (SalivaBio Oral Swab, Salimetrics, USA). These swabs were cut in the middle of their height to fit into the sample processing kit. Each halved swab collected about 0.5 mL of saliva.
Next, EPOCH was used for onsite THC detection. Oral fluid samples from recreational cannabis users (40 cannabis smokers and three THC jelly users) were collected within 10 minutes of product consumption and then tested. As a control, oral fluid samples were also assessed from non-cannabis users (13 traditional tobacco smokers and 30 non-smokers) without a history of cannabis use. […] We observed no significant difference between male and female subjects in any of the cohorts (P>0.05, two-sided Mann-Whitney test; FIG. 5C).
We also monitored how THC levels changed over time after cannabis smoking. In this case, oral fluid samples were collected hourly after the inhalation and subjected to the EPOCH tests.

Compound: CCCCCc1cc(O)c2c(c1)OC(C)(C)[C@@H]1CCC(C)=C[C@@H]21 [THC, Δ^9-tetrahydrocannabinol]
- association constant Ka with AuNPAb [1]: 0.074 nM⁻¹
- oral THC concentration in all cannabis-user samples ([2]; 43 cannabis users shortly after consumption, versus regulatory guideline): > 1 ng/mL
- half-life of THC in saliva ([2]; after cannabis smoking, hourly samples, three users, single-phase exponential decay): 1.4 h
- oral THC concentration (average/median) ([2]; cannabis smokers, oral fluid collected within 10 minutes of consumption): 478 ng/mL
- half-life ([2]; human, saliva, inhaled, after cannabis smoking, hourly samples, three users, single-phase exponential decay, read-out: half-life of THC in saliva (converted)): 1.4 h
- concentration at 6 h ([2]; human, saliva, po, six hours after cannabis smoking, read-out: oral THC level): > 1 ng/mL
